According to patent US11497813B2, “Bortezomib conjugates and methods using same” (Frank EBETINO et al., priority 2015, dated 2022):
Entries after “also recorded” stand apart in the source; their conditions may differ.

Tests used:
5TGM1-GFP myeloma cells = experiment: Multiple myeloma model, 5TGM1-GFP myeloma cells in NIH-III nude mice; assay type: in vivo, mouse
Text: FIG. 25A depicts the groups and treatment used in the experimental examples. FIG. 25B depicts a table of clinical observations. FIG. 25C depicts images of GFP imaging showing the distribution of myeloma cells. FIG. 25D is a table of experimental data showing blood IgG2b levels. FIG. 25E is a table of experimental data showing osteoblast differentiation.
A MM model was generated using tail vein injection of 5TGM1-GFP myeloma cells into 6-week-old female NIH-III nude mice. Tumor burden and bone volume were examined.

UPS activation = experiment: Ub^G76V-GFP reporter cells (GFP+ cells) in osteoclast cultures and on pre-incubated bone slices; assay type: cell-based, mouse; settings: for GFP+ cells on pre-incubated bone slices: BM cells from Ub^G76V-GFP mice on bone slices pre-incubated with compound
Protocol: FIG. 5A is a scheme of an exemplary synthesis of compound BP-Btz1. FIG. 5B is a series of images of bone slices pre-incubated with 1 μM BP-Btz1, Btz, or bisphosphonate (BP) overnight. Drug solutions were removed and bone slices were washed with PBS extensively. […] (BM) cells from UB^G76V-GFP mice were cultured on bone slices in the presence of M-CSF and RANKL for 9 days. Top images (a): GFP^+ cells were observed under a fluorescence microscope and GFP signal intensity was quantified. Middle images (b): bone slices were fixed and subjected to TRAP staining for osteoclasts (OCs). OC #/slice were counted. Bottom images (c): cells were removed from slices. Toluidine blue staining was performed and pit areas/slice were counted. FIG. 5C is a series of images of murine BM cells cultured and stained for ALP. FIG. 5D is a series of images of human MSCs cultured and stained for ALP. Murine BM cells and human MSCs were cultured in the OB-inducing medium plus different concentrations of BP-Btz1 or Btz for 4 or 6 days, respectively. Cells were stained for ALP. The ALP^+ areas were measured by Image J. *P<0.05 vs. Btz-treated cells.
1. Ub^G76V-GFP mice in B6 background (Stock #008111, Jax lab) are generated using previously described methods (Lindsten et al., 2003, Nat. Biotech. 21:897-902). The Ub^G76V-GFP transgene was designed with a chicken beta-actin promoter and CMV immediate early enhancer upstream of a GFP fused to a mutant ubiquitin moiety (Ub^G76V), a constitutively active proteasome degradation signal. Following proteasome inhibitor administration, Ub^G76V accumulates and GFP fluorescence is readily apparent. GFP^+ OCs were detected at 4 and 8 hrs after adding Btz to OC cultures, which disappeared at 24 hrs. […] 2. OC formation and resorption assays and data analyses are performed as described herein (FIG. 4) and using previously described methods (Zhang et al., 2014, J. Clin. Invest. 124:3200-3214; Xiu et al., 2014, J. Clin. Invest. 124:297-310). […] The number and area of OCs and resorption pits are assessed. The appearance, intensity and distribution of GFP^+ cells on bone slices and plastic surrounding bone slices during OC formation is observed and recorded. 3. OB differentiation. Third passages of BM stromal cells are used as MPCs, as previously described (Shu et al., 2013, J. Bone Min. Res. 28:1925-1935; Zhang et al., 2014, J. Clin. Invest. 124:3200-3214). MPCs are cultured on plastic plates in OB-inducing medium±BP-Btz conjugates, Btz or BP (0.1-100 nM) for 1-3 wks. Plates are subjected to alkaline phosphatase (ALP) and alizarin red staining, and qPCR analyses. Area of ALP^+ and mineralized bone nodule, and the expression levels of OB marker genes (ALP, osteocalcin, Runx2) are measured. GFP^+ cells during OB differentiation are observed as in OCs. In a parallel experiment, human MSCs (from Lonza) are treated with BP-Btz, Btz, or BP in OB-inducing medium and their effects examined on OB differentiation as show in FIGS. 5C and 5D. 4. Western blot/Ub assays. OCPs or MPCs are treated with a preferred dose of leading BP-Btz, Btz and BP. OCP lysates are subjected to Western blot using α-NF-κB members and TRAF6 Abs. OB lysates are subjected to Western blot with α-ubiquitin, Runx2, or JunB Abs, and Ub assays using UbiQapture matrix (Biomol) to pull down Ub-proteins followed by α-Runx2 and JunB Abs using previously described methods (Zhao et al., 2010, J. Bone Min. Res. 25:1246-1256; Zhao et al., 2011, Stem cells 29:1601-1610).

C57/B6 mice = experiment: Systemic toxicity in C57/B6 mice, daily treatment for 3 weeks; assay type: in vivo
Protocol: C57/B6 mice, 7 w, BP or Btz (0.6 mg/kg), BP-Btz (1.2 mg/k), daily for 3 weeks. FIG. 29A depicts the groups and treatment used in the experimental examples. FIG. 29B depicts a table of experimental data of body weight before and after treatment. […] FIG. 29D depicts experimental data of bone marrow.

WT mice = experiment: Bone volume and osteoblast differentiation in WT mice; assay type: in vivo, mouse
[1] = myeloma mice, compared with Btz

Row | SMILES | peripheral blood platelet and cell numbers (blood counts) (5TGM1-GFP myeloma cells; FIG. 27, compared with Btz) | osteoblast colonies from bone marrow cells (5TGM1-GFP myeloma cells; bone marrow cells from treated myeloma mice) | myeloma-induced bone loss (5TGM1-GFP myeloma cells; [1]) | tumor burden (5TGM1-GFP myeloma cells; [1]) | GFP+ cells on pre-incubated bone slices (UPS activation) | B cell numbers in bone marrow (C57/B6 mice; C57/B6 mice, 7 w, daily for 3 weeks) | systemic toxicity (C57/B6 mice; C57/B6 mice, daily for 3 weeks, compared with Btz) | toxic effect on neurons (dorsal root ganglia) (C57/B6 mice; EM images of dorsal root ganglia) | bone volume (WT mice; WT mice, FIG. 17) | osteoblast differentiation (WT mice; WT mice, FIG. 17) | GFP+ OCs after adding compound to OC cultures (UPS activation; 4 and 8 hrs) | GFP+ OCs after adding compound to OC cultures (UPS activation; 24 hrs) | bone volume (WT mice; 3-m-old mice, 0.6 mg/kg/i.p. at day 1, 3, 5, read at day 10)
1 | CC(C)C[C@H](NC(=O)[C@H](Cc1ccccc1)NC(=O)c1cnccn1)B1OCCN(CCOC(=O)NC(P(=O)(O)O)P(=O)(O)O)CCO1 [BP-Btz1] | less deleterious effects than Btz; also recorded: reduces side effects on blood counts compared with Btz | form more osteoblast colonies | reduces tumor burden and myeloma-induced bone loss more effectively than Btz; also recorded: prevents myeloma-induced bone loss more effectively than Btz | reduces tumor burden and myeloma-induced bone loss more effectively than Btz | present | reduces B cell numbers | less systemic toxicity than Btz | prevents toxic effect on neurons | increases bone volume | increases |  |  | 
2 | CC(C)C[C@H](NC(=O)[C@H](Cc1ccccc1)NC(=O)c1cnccn1)B(O)O [Btz, [(1R)-3-methyl-1-[[(2S)-1-oxo-3-phenyl-2[(pyrazinylcarbonyl)amino]propyl]amino]butyl] boronic acid] |  |  |  |  | not |  |  |  |  |  | detected | disappeared | increased bone volume
